Tests used:
[1] = system: streptozotocin induced diabetic rats; experiment: Antidiabetic activity in streptozotocin induced diabetic rats (Example 22); assay type: in vivo, rat
Description: The amla seed extract as prepared in example 1 was evaluated for antidiabetic activity in experimental rats. Male/Female albino wistar rats were maintained as per standard guidelines: housed in polypropylene cages, under 12 hour artificial light and dark cycles at a temperature of 24±2° C., given a standard pellet diet and water ad libitum. The animals were acclimatized to the animal house conditions for a week before beginning the experiment. Diabetes was induced by injecting streptozotocin 35 mg/kg dissolved in 0.1M citrate buffer of pH 4.5, intra-peritoneally. […] Animals with FBG above 200 mg/dl were considered diabetic. The diabetic animals were randomly divided into three groups of six animals each. […] The plasma CRP level was measured initially and then at Day 28 of the study.

HMG-CoA Reductase (HMGR) = target: T1, HMG-CoA Reductase (HMGR) (Homo sapiens, UniProt P04035); experiment: HMG-CoA reductase inhibition assay (Example 30); assay type: biochemical; conditions: read-out: % Inhibition over control
T1 sequence (P04035 426-888 limits assumed): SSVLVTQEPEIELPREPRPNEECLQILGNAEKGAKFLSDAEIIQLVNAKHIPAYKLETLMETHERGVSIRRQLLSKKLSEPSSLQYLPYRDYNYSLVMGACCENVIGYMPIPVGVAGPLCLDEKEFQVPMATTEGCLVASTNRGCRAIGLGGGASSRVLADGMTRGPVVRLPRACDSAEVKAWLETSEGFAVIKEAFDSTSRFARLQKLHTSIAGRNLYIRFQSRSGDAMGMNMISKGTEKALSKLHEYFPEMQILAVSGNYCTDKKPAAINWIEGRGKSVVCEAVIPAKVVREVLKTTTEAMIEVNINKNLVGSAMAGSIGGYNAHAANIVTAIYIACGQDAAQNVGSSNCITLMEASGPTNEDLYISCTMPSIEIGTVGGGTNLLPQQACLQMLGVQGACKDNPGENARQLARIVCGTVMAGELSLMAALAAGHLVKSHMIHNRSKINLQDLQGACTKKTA
Description: Amla seed extract prepared as per example 1 and water extract of dried Amla seed prepared as per example 8 was weighed separately and each extract was dissolved in dimethyl sulfoxide (DMSO) to prepare a stock of 400 mg/ml stock solution of each. From this stock, different dose levels were prepared in DMSO for further experimental use. […] The optical density (OD) values were recorded using spectrophotometer at regular time intervals. […] Based on the specific activity values from all the test doses, EC50 (Effective Concentration 50) were determined by plotting a curve between Specific activity Vs. Test concentration. EC50 values (μg/ml) and IC50 (μM) were determined by interpolation method by using Graph pad prism, version 5.01.

Row | Structure (SMILES) | Fasting Blood Glucose level Day 7 ([1]; 0.5 mg/kg for 28 days) | Fasting Blood Glucose level Day 14 ([1]; 0.5 mg/kg for 28 days) | Fasting Blood Glucose level Day 21 ([1]; 0.5 mg/kg for 28 days) | Fasting Blood Glucose level Day 28 ([1]; 0.5 mg/kg for 28 days) | effect on blood glucose level ([1]; 0.5 mg/kg for 28 days) | Fasting Blood Glucose level Day 1 (Initial) ([1]; 0.5 mg/kg for 28 days group) | effect on CRP level ([1]; 0.5 mg/kg for 28 days, compared to initial CRP value) | CRP level Day 28 (Final) ([1]; plasma, 0.5 mg/kg for 28 days) | CRP level Day 1 (Initial) ([1]; plasma, 0.5 mg/kg for 28 days group) | inhibition at 2.5 µM (HMG-CoA Reductase (HMGR); test concentration 2.5 μM) | inhibition at 5 µM (HMG-CoA Reductase (HMGR); test concentration 5 μM) | inhibition at 10 µM (HMG-CoA Reductase (HMGR); test concentration 10 μM) | inhibition at 20 µM (HMG-CoA Reductase (HMGR); test concentration 20 μM) | inhibition at 40 µM (HMG-CoA Reductase (HMGR); test concentration 40 μM) | inhibition at 60 µM (HMG-CoA Reductase (HMGR); test concentration 60 μM) | inhibition at 80 µM (HMG-CoA Reductase (HMGR); test concentration 80 μM) | inhibition at 100 µM (HMG-CoA Reductase (HMGR); test concentration 100 μM)
1 | COc1ccc(Cl)cc1C(=O)NCCc1ccc(S(=O)(=O)NC(=O)NC2CCCCC2)cc1 [Glibenclamide] | 211 mg/dL | 179 mg/dL | 136 mg/dL | 109 mg/dL | decreased the blood glucose level to nearly normal | 406 mg/dL | failed to decrease the CRP level significantly | 9.6 mg/L | 10.8 mg/L |  |  |  |  |  |  |  | 
2 | CC[C@H](C)C(=O)O[C@H]1C[C@@H](C)C=C2C=C[C@H](C)[C@H](CC[C@@H]3C[C@@H](O)CC(=O)O3)[C@H]21 [LOVASTATIN, lovastatin] |  |  |  |  |  |  |  |  |  | 37% | 37.6% | 37.7% | 41.5% | 55.6% | 76.5% | 86.6% | 98.5%
